The results in this text go back to US20060068007A1, “Class of surfactant-like materials” (Boehringer Ingelheim Pharmaceuticals, Inc., priority 2004, published 2006).

The series can be described thus: Solubility of the active agent depending on pH. It is filed as physicochemical. The following applies: basic conditions. As to the method: The tablets were prepared similarly as described in Example 3.

As for `COc1ccc2c(O[C@@H]3C[C@H]4C(=O)N[C@]5(C(=O)O)CC5/C=C\CCCCC[C@H](NC(=O)OC5CCCC5)C(=O)N4C3)cc(-c3csc(NC(C)C)n3)nc2c1` (stereo partly drawn) [(Z)-(1S,4R,14S,18R)-14-Cyclopentyloxycarbonylamino-18-[2-(2-isopropylamino-thiazol-4-yl)-7-methoxy-quinolin-4-yloxy]-2,15-dioxo-3,16-diaza-tricyclo[14.3.0.0^4,6]nonadec-7-ene-4-carboxylic acid], the solubility result is recorded as “higher solubility in basic conditions”.
